{"source": "the kinase profiling compilation of Christmann-Franck et al. (2016)", "experiment_in_all_cases": "KINOMEscan competition binding", "conditions_in_all_cases": "compound 10.0 µM", "key": {"MAPK10 (human)": {"target": "MAPK10 (human) (UniProt P53779)"}, "[1]": {"system": "FGFR3 (human), P22607 [G697C]"}, "[2]": {"system": "EGFR (human), P00533 [746-750 del]"}, "FGR (human)": {"target": "FGR (human) (UniProt P09769)"}, "LYN (human)": {"target": "LYN (human) (UniProt P07948)"}, "[3]": {"system": "ABL1 (human), P00519 [T315I]"}, "MAP3K3 (human)": {"target": "MAP3K3 (human) (UniProt Q99759)"}, "[4]": {"system": "FLT3 (human), P36888 [ITD]"}, "STK35 (human)": {"target": "STK35 (human) (UniProt Q8TDR2)"}, "STK36 (human)": {"target": "STK36 (human) (UniProt Q9NRP7)"}, "[5]": {"system": "ABL1 (human), P00519 [Q252H]"}, "[6]": {"system": "ABL1 (human), P00519 [F317L]"}, "MUSK (human)": {"target": "MUSK (human) (UniProt O15146)"}, "PTK6 (human)": {"target": "PTK6 (human) (UniProt Q13882)"}, "CSK (human)": {"target": "CSK (human) (UniProt P41240)"}, "IKBKB (human)": {"target": "IKBKB (human) (UniProt O14920)"}, "EPHA8 (human)": {"target": "EPHA8 (human) (UniProt P29322)"}, "RAF1 (human)": {"target": "RAF1 (human) (UniProt P04049)"}, "[7]": {"system": "ABL1 (human), P00519 [M351T]"}, "TTK (human)": {"target": "TTK (human) (UniProt P33981)", "sequence (P33981 whole entry, looked up)": "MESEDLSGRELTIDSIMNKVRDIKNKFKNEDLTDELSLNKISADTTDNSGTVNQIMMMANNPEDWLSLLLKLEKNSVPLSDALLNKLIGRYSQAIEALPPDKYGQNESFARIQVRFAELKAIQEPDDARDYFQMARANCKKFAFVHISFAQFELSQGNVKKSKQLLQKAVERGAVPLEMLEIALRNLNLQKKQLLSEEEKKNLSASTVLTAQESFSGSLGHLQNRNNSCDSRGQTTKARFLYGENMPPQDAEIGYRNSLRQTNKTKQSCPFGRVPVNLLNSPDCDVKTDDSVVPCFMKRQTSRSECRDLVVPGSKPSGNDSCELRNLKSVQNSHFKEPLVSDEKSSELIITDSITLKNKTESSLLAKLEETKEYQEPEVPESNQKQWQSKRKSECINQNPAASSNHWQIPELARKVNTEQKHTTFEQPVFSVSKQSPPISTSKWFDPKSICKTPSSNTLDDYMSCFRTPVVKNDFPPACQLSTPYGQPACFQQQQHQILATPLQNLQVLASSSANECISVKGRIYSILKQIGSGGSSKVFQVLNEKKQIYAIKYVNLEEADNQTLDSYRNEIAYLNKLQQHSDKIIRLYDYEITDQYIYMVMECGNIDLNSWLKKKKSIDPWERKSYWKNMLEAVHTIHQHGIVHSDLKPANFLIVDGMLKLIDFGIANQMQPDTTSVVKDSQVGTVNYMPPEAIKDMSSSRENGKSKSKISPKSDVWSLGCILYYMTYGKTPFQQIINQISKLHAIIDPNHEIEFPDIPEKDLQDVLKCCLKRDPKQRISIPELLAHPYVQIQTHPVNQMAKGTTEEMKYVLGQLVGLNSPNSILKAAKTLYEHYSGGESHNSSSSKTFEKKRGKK"}, "HIPK1 (human)": {"target": "HIPK1 (human) (UniProt Q86Z02)"}, "NLK (human)": {"target": "NLK (human) (UniProt Q9UBE8)"}, "[8]": {"system": "EGFR (human), P00533 [L861Q]"}, "CDK15 (human)": {"target": "CDK15 (human) (UniProt Q96Q40)"}, "ULK3 (human)": {"target": "ULK3 (human) (UniProt Q6PHR2)"}, "PTK2B (human)": {"target": "PTK2B (human) (UniProt Q14289)", "sequence (Q14289 whole entry, looked up)": "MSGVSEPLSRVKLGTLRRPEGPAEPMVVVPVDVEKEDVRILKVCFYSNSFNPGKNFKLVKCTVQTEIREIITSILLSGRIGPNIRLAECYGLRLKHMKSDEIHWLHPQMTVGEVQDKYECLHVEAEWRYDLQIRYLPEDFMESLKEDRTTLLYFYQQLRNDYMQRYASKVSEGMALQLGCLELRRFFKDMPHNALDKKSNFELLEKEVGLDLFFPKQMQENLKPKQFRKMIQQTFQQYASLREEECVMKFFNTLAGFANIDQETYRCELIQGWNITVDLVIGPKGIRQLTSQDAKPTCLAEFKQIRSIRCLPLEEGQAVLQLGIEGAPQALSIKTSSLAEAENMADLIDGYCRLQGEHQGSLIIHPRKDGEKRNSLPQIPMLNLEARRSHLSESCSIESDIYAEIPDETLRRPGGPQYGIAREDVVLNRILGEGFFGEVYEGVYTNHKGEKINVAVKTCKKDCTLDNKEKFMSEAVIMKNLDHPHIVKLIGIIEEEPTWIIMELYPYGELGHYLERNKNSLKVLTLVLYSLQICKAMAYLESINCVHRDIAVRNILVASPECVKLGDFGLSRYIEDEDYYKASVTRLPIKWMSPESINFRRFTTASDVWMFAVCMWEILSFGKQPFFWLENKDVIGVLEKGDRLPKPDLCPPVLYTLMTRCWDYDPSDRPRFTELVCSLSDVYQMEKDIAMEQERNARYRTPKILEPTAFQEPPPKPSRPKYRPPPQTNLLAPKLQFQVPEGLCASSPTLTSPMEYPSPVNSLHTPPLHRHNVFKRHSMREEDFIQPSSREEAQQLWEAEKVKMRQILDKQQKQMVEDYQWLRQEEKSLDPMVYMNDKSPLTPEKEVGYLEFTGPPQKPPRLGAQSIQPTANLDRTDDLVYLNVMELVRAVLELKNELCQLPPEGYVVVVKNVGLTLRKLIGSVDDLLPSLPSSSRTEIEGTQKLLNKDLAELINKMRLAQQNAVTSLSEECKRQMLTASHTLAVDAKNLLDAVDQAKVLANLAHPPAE"}, "CDK2 (human)": {"target": "CDK2 (human) (UniProt P24941)"}, "RET (human)": {"target": "RET (human) (UniProt P07949)", "sequence (P07949 whole entry, looked up)": "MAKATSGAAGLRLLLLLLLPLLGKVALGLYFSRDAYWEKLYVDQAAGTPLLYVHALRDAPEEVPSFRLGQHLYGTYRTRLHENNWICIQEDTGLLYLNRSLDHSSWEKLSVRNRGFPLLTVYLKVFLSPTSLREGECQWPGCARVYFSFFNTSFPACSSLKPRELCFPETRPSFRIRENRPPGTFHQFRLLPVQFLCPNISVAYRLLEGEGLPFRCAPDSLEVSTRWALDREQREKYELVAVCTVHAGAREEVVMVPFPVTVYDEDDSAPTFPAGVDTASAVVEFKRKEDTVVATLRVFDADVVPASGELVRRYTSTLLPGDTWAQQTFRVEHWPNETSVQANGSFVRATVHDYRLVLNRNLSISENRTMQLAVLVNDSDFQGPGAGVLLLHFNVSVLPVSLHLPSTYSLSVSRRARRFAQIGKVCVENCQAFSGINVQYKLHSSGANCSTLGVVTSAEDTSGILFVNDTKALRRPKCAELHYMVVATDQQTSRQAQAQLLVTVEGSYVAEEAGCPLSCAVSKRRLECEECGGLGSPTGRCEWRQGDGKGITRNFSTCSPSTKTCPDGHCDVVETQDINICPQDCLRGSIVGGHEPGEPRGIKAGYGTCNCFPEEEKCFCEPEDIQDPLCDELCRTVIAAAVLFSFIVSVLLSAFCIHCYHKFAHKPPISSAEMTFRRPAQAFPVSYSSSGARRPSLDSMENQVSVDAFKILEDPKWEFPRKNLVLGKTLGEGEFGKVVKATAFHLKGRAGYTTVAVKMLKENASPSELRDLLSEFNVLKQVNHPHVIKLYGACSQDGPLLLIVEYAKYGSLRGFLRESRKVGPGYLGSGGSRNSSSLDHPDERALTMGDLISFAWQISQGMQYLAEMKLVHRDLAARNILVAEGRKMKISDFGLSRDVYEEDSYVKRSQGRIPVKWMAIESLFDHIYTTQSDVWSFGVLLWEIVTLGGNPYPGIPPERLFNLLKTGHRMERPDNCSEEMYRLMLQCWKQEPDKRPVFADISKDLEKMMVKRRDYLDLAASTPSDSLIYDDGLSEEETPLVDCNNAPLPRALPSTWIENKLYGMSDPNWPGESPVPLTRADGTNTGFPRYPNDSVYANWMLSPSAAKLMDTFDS"}, "PDGFRA (human)": {"target": "PDGFRA (human) (UniProt P16234)"}, "[9]": {"system": "EGFR (human), P00533 [752-759 del]"}, "NTRK3 (human)": {"target": "NTRK3 (human) (UniProt Q16288)"}, "YES1 (human)": {"target": "YES1 (human) (UniProt P07947)"}, "[10]": {"system": "KIT (human), P10721 [V559D]"}, "CAMK1D (human)": {"target": "CAMK1D (human) (UniProt Q8IU85)"}, "[11]": {"system": "EGFR (human), P00533 [G719S]"}, "[12]": {"system": "RET (human), P07949 [V804M]"}, "GAK (human)": {"target": "GAK (human) (UniProt O14976)", "sequence (O14976 whole entry, looked up)": "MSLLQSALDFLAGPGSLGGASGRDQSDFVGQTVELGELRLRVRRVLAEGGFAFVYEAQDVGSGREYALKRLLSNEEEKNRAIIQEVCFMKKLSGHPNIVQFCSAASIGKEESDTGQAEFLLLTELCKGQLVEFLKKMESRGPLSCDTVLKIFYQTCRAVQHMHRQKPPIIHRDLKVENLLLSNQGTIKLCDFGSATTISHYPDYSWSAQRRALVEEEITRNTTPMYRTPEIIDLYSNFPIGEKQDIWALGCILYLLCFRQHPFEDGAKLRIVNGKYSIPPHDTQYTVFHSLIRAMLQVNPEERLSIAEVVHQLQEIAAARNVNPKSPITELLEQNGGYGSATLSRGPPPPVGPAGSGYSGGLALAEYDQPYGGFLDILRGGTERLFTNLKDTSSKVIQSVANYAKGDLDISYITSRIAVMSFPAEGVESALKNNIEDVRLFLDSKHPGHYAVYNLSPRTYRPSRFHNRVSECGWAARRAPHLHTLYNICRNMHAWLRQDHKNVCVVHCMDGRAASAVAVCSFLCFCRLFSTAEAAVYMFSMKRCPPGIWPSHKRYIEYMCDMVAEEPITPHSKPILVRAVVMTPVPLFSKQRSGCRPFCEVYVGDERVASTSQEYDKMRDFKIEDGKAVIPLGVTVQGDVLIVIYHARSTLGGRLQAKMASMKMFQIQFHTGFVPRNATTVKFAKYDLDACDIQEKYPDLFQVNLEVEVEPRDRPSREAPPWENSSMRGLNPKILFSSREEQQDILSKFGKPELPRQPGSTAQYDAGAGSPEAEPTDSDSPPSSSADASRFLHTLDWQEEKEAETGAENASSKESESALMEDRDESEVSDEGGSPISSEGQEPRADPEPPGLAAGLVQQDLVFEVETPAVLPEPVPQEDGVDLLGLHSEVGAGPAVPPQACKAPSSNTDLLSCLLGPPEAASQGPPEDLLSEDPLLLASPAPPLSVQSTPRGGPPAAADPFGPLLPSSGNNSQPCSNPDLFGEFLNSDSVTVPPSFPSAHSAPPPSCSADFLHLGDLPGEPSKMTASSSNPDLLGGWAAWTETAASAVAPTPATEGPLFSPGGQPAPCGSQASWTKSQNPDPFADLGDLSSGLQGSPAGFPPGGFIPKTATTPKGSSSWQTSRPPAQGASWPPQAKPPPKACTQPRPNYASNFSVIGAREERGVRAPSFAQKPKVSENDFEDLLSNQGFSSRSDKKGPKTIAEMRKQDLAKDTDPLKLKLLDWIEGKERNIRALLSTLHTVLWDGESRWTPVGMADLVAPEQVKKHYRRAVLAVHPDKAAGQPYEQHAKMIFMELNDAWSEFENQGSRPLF"}, "MLTK (human)": {"target": "MLTK (human) (UniProt Q9NYL2)", "sequence (Q9NYL2 whole entry, looked up)": "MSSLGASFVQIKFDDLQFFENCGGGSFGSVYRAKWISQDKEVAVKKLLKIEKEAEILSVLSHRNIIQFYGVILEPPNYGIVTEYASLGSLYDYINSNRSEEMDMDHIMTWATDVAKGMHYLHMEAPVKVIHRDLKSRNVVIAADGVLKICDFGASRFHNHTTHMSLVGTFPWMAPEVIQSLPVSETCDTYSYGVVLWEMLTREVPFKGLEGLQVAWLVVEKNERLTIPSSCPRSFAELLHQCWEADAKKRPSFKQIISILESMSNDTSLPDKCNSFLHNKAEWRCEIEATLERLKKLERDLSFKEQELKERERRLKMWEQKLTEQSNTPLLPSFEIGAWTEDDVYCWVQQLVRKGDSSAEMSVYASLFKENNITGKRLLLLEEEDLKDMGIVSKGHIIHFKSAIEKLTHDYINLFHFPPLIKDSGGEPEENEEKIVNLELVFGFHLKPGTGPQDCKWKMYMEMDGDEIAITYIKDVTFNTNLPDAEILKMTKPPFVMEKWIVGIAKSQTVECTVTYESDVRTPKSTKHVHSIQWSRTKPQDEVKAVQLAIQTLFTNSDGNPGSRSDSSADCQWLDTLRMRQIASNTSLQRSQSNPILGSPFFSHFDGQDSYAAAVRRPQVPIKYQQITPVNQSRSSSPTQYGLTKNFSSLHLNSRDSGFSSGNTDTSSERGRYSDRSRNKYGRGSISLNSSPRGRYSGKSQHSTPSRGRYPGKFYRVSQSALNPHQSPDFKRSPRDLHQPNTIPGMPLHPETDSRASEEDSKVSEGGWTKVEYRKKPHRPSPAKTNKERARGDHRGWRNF"}, "PRKACB (human)": {"target": "PRKACB (human) (UniProt P22694)"}, "[13]": {"system": "EGFR (human), P00533 [P753S; 747-752 del]"}, "CDK7 (human)": {"target": "CDK7 (human) (UniProt P50613)"}}, "data": [{"molecule": "CCN1CCN(Cc2ccc(NC(=O)c3ccc(C)c(Oc4ccnc5[nH]ccc45)c3)cc2C(F)(F)F)CC1", "values": [{"measurement": "kinase still bound, per cent of control", "setting": "MAPK10 (human)", "value": 12, "unit": "%"}, {"measurement": "kinase still bound, per cent of control", "setting": "[1]", "value": 16, "unit": "%"}, {"measurement": "kinase still bound, per cent of control", "setting": "[2]", "value": 8.4, "unit": "%"}, {"measurement": "kinase still bound, per cent of control", "setting": "FGR (human)", "value": 1.2, "unit": "%"}, {"measurement": "kinase still bound, per cent of control", "setting": "LYN (human)", "value": 0.75, "unit": "%"}, {"measurement": "kinase still bound, per cent of control", "setting": "[3]", "value": 0, "unit": "%"}, {"measurement": "kinase still bound, per cent of control", "setting": "MAP3K3 (human)", "value": 12, "unit": "%"}, {"measurement": "kinase still bound, per cent of control", "setting": "[4]", "value": 0.7, "unit": "%"}, {"measurement": "kinase still bound, per cent of control", "setting": "STK35 (human)", "value": 3, "unit": "%"}, {"measurement": "kinase still bound, per cent of control", "setting": "STK36 (human)", "value": 0.2, "unit": "%"}, {"measurement": "kinase still bound, per cent of control", "setting": "[5]", "value": 0.4, "unit": "%"}, {"measurement": "kinase still bound, per cent of control", "setting": "[6]", "value": 0.1, "unit": "%"}, {"measurement": "kinase still bound, per cent of control", "setting": "MUSK (human)", "value": 0.2, "unit": "%"}, {"measurement": "kinase still bound, per cent of control", "setting": "PTK6 (human)", "value": 28, "unit": "%"}, {"measurement": "kinase still bound, per cent of control", "setting": "CSK (human)", "value": 0.45, "unit": "%"}, {"measurement": "kinase still bound, per cent of control", "setting": "IKBKB (human)", "value": 24, "unit": "%"}, {"measurement": "kinase still bound, per cent of control", "setting": "EPHA8 (human)", "value": 0.1, "unit": "%"}, {"measurement": "kinase still bound, per cent of control", "setting": "RAF1 (human)", "value": 7, "unit": "%"}, {"measurement": "kinase still bound, per cent of control", "setting": "[7]", "value": 0.35, "unit": "%"}, {"measurement": "kinase still bound, per cent of control", "setting": "TTK (human)", "value": 24, "unit": "%"}, {"measurement": "kinase still bound, per cent of control", "setting": "HIPK1 (human)", "value": 6.2, "unit": "%"}, {"measurement": "kinase still bound, per cent of control", "setting": "NLK (human)", "value": 14, "unit": "%"}, {"measurement": "kinase still bound, per cent of control", "setting": "[8]", "value": 15, "unit": "%"}, {"measurement": "residual activity", "setting": "CDK15 (human)", "value": 6, "unit": "%"}, {"measurement": "kinase still bound, per cent of control", "setting": "ULK3 (human)", "value": 0.1, "unit": "%"}, {"measurement": "kinase still bound, per cent of control", "setting": "PTK2B (human)", "value": 2.1, "unit": "%"}, {"measurement": "residual activity", "setting": "CDK2 (human)", "value": 11, "unit": "%"}, {"measurement": "kinase still bound, per cent of control", "setting": "RET (human)", "value": 0, "unit": "%"}, {"measurement": "kinase still bound, per cent of control", "setting": "PDGFRA (human)", "value": 0.6, "unit": "%"}, {"measurement": "kinase still bound, per cent of control", "setting": "[9]", "value": 4.6, "unit": "%"}, {"measurement": "kinase still bound, per cent of control", "setting": "NTRK3 (human)", "value": 3.8, "unit": "%"}, {"measurement": "kinase still bound, per cent of control", "setting": "YES1 (human)", "value": 1.6, "unit": "%"}, {"measurement": "kinase still bound, per cent of control", "setting": "[10]", "value": 0, "unit": "%"}, {"measurement": "kinase still bound, per cent of control", "setting": "CAMK1D (human)", "value": 6.2, "unit": "%"}, {"measurement": "kinase still bound, per cent of control", "setting": "[11]", "value": 14, "unit": "%"}, {"measurement": "kinase still bound, per cent of control", "setting": "[12]", "value": 1, "unit": "%"}, {"measurement": "kinase still bound, per cent of control", "setting": "GAK (human)", "value": 31, "unit": "%"}, {"measurement": "kinase still bound, per cent of control", "setting": "MLTK (human)", "value": 0.35, "unit": "%"}, {"measurement": "residual activity", "setting": "PRKACB (human)", "value": 14, "unit": "%"}, {"measurement": "kinase still bound, per cent of control", "setting": "[13]", "value": 1.2, "unit": "%"}, {"measurement": "residual activity", "setting": "CDK7 (human)", "value": 2.4, "unit": "%"}]}]}
